Experimental data taken from patent US7417156B2, “Orally active, antimalarial, anticancer, artemisinin-derived trioxane dimers” (Johns Hopkins University, priority 2002, dated 2008).

What was measured:
SF-295 = test: NCI 60 cell line panel screen (SRB); type: cell-based, human
UACC-62 = test: NCI 60 cell line panel screen (SRB); type: cell-based, human; conditions: UACC-62 (Melanoma)
SW-620 = test: NCI 60 cell line panel screen (SRB); type: cell-based, human
LOX IMVI = test: NCI 60 cell line panel screen (SRB); type: cell-based, human
DU-145 = test: NCI 60 cell line panel screen (SRB); type: cell-based, human
NCI-H226 = test: NCI 60 cell line panel screen (SRB); type: cell-based, human; conditions: for Log10LC50 / Log10TGI50: NCI-H226 (Non-Small Cell Lung Cancer); for Log10LC50: LC50: PG=−50; for Log10TGI50: TGI: PG=0; for Log10GI50: Non-Small Cell Lung Cancer, NCI-H226
SN12C = test: NCI 60 cell line panel screen (SRB); type: cell-based, human
SK-MEL-5 = test: NCI 60 cell line panel screen (SRB); type: cell-based, human
HCC-2998 = test: NCI 60 cell line panel screen (SRB); type: cell-based, human
HCT-15 = test: NCI 60 cell line panel screen (SRB); type: cell-based, human; conditions: for Log10GI50: Colon Cancer, HCT-15; for Log10LC50 / Log10TGI50: HCT-15 (Colon Cancer); for Log10LC50: LC50: PG=−50; for Log10TGI50: TGI: PG=0
MDA-MB231/ATCC = test: NCI 60 cell line panel screen (SRB); type: cell-based, human; conditions: for Log10GI50: Breast Cancer, MDA-MB231/ATCC; for Log10LC50 / Log10TGI50: MDA-MB231/ATCC (Breast Cancer); for Log10LC50: LC50: PG=−50; for Log10TGI50: TGI: PG=0
786-0 = test: NCI 60 cell line panel screen (SRB); type: cell-based, human; conditions: for Log10LC50 / Log10TGI50: 786-0 (Renal Cancer); for Log10LC50: LC50: PG=−50; for Log10TGI50: TGI: PG=0; for Log10GI50: Renal Cancer, 786-0
A498 = test: NCI 60 cell line panel screen (SRB); type: cell-based, human
OVCAR-4 = test: NCI 60 cell line panel screen (SRB); type: cell-based, human
[1] = system: P. berghei NY malaria parasite; test: Antimalarial efficacies in vivo in mice
Source text: Neither overt toxicity nor behavioral modification was observed due to drug administration in any of these mouse experiments.

MDA-N = test: NCI 60 cell line panel screen (SRB); type: cell-based, human; conditions: Breast Cancer, MDA-N

## CC1CCC2C(C)C(CC(O)(CO)CC3OC4OC5(C)CCC6C(C)CCC(C3C)C46OO5)OC3OC4(C)CCC1C32OO4 (stereo not drawn) [Compound 5, bis-trioxane vicinal diol]
SF-295; CNS Cancer, SF-295
  Log10GI50: −4.94
SF-295; SF-295 (CNS Cancer), LC50: PG=−50
  Log10LC50: −4.04 log10M
SF-295; SF-295 (CNS Cancer), TGI: PG=0
  Log10TGI50: −4.49 log10M
UACC-62; LC50: PG=−50
  Log10LC50: −4.24 log10M
UACC-62; TGI: PG=0
  Log10TGI50: −4.67 log10M
SW-620; Colon Cancer, SW-620
  Log10GI50: −4.97
SW-620; SW-620 (Colon Cancer), LC50: PG=−50
  Log10LC50: >−4.00 log10M
SW-620; SW-620 (Colon Cancer), TGI: PG=0
  Log10TGI50: >−4.00 log10M
LOX IMVI; LOX IMVI (Melanoma), LC50: PG=−50
  Log10LC50: −4.44 log10M
LOX IMVI; LOX IMVI (Melanoma), TGI: PG=0
  Log10TGI50: −5.47 log10M
LOX IMVI; Melanoma, LOX IMVI
  Log10GI50: <−8.00
DU-145; DU-145 (Prostate Cancer), LC50: PG=−50
  Log10LC50: −4.13 log10M
DU-145; DU-145 (Prostate Cancer), TGI: PG=0
  Log10TGI50: −4.48 log10M
DU-145; Prostate Cancer, DU-145
  Log10GI50: −4.83
NCI-H226
  Log10LC50: −4.11 log10M
  Log10TGI50: −4.49 log10M
  Log10GI50: −4.87
SN12C; Renal Cancer, SN12C
  Log10GI50: −7.60
SN12C; SN12C (Renal Cancer), LC50: PG=−50
  Log10LC50: −4.26 log10M
SN12C; SN12C (Renal Cancer), TGI: PG=0
  Log10TGI50: −4.72 log10M
SK-MEL-5; Melanoma, SK-MEL-5
  Log10GI50: −7.69
SK-MEL-5; SK-MEL-5 (Melanoma), LC50: PG=−50
  Log10LC50: −4.21 log10M
SK-MEL-5; SK-MEL-5 (Melanoma), TGI: PG=0
  Log10TGI50: −4.64 log10M
HCC-2998; Colon Cancer, HCC-2998
  Log10GI50: −4.65
HCC-2998; HCC-2998 (Colon Cancer), LC50: PG=−50
  Log10LC50: >−4.00 log10M
HCC-2998; HCC-2998 (Colon Cancer), TGI: PG=0
  Log10TGI50: −4.23 log10M
HCT-15
  Log10GI50: −5.28
  Log10LC50: −4.03 log10M
  Log10TGI50: −4.53 log10M
MDA-MB231/ATCC
  Log10GI50: −4.99
  Log10LC50: −4.15 log10M
  Log10TGI50: −4.57 log10M
786-0
  Log10LC50: >−4.00 log10M
  Log10TGI50: −4.36 log10M
  Log10GI50: −4.87
A498; A498 (Renal Cancer), LC50: PG=−50
  Log10LC50: −4.21 log10M
A498; A498 (Renal Cancer), TGI: PG=0
  Log10TGI50: −4.51 log10M
A498; Renal Cancer, A498
  Log10GI50: −4.81
OVCAR-4; OVCAR-4 (Ovarian Cancer), LC50: PG=−50
  Log10LC50: −4.12 log10M
OVCAR-4; OVCAR-4 (Ovarian Cancer), TGI: PG=0
  Log10TGI50: −4.55 log10M
OVCAR-4; Ovarian Cancer, OVCAR-4
  Log10GI50: −4.99

## CC1CCC2C(C)C(CC(O)(CC3OC4OC5(C)CCC6C(C)CCC(C3C)C46OO5)CS(=O)(=O)c3ccc(C(=O)O)cc3)OC3OC4(C)CCC1C32OO4 (stereo not drawn) [Compound 10c, bis-trioxane β-hydroxysulfone benzoic acid]
[1]; route IV
  ED50: 2.7 mg/kg × 4
  ED90: 10.0 mg/kg × 4
  % Parasite Supression at 10 mg/kg: 83.4%
[1]; route PO
  ED50: 7.5 mg/kg × 4
  ED90: 35.0 mg/kg × 4
  % Parasite Supression at 10 mg/kg: 46.1%
NCI-H226
  Log10LC50: −4.82 log10M
  Log10TGI50: <−8.30 log10M
  Log10GI50: <−8.30
HCT-15
  Log10GI50: <−8.30
  Log10LC50: −4.70 log10M
  Log10TGI50: −5.23 log10M
MDA-MB231/ATCC
  Log10GI50: <−8.30
  Log10LC50: −5.02 log10M
  Log10TGI50: <−8.30 log10M
786-0
  Log10LC50: −4.64 log10M
  Log10TGI50: −5.08 log10M
  Log10GI50: <−8.30

## CC1CCC2C(C)C(CC(COC(=O)CCC(=O)O)CC3OC4OC5(C)CCC6C(C)CCC(C3C)C46OO5)OC3OC4(C)CCC1C32OO4 (stereo not drawn) [Compound 8a, bis-trioxane primary succinate monoester]
[1]; route IV
  ED50: 2.2 mg/kg × 4
  ED90: 6.3 mg/kg × 4
  % Parasite Supression at 10 mg/kg: 81.0%
[1]; route PO
  ED50: 9.0 mg/kg × 4
  ED90: 15.0 mg/kg × 4
  % Parasite Supression at 10 mg/kg: 79.2%
NCI-H226
  Log10LC50: >−4.30 log10M
  Log10TGI50: −6.67 log10M
  Log10GI50: <−8.30
HCT-15
  Log10GI50: <−8.30
  Log10LC50: >−4.30 log10M
  Log10TGI50: −5.61 log10M
MDA-MB231/ATCC
  Log10GI50: −7.19
  Log10LC50: >−4.30 log10M
  Log10TGI50: −6.35 log10M
786-0
  Log10LC50: >−4.30 log10M
  Log10TGI50: >−4.30 log10M
  Log10GI50: −6.45
MDA-N
  Log10GI50: −7.29
